Measurements reported in patent US10015966B2, “Fungicidal pyrazole mixtures” (E I DU PONT DE NEMOURS AND COMPANY, priority 2012, dated 2018).

How the values were obtained:
Assay type in all cases: in vivo
[1] = tested on: Blumeria graminis f. sp. tritici; assay: Test I: preventive spray on wheat seedlings, wheat powdery mildew, visual disease rating; settings: 192 h, 200 ppm test suspension
Experimental: General protocol for preparing test suspensions for Tests A-I: the test compounds were first dissolved in acetone in an amount equal to 3% of the final volume and then suspended at the desired concentration (in ppm) in acetone and purified water (50/50 mix by volume) containing 250 ppm of the surfactant Trem® 014 (polyhydric alcohol esters). The resulting test suspensions were then used in Tests A-I. Each test was conducted in triplicate, and the results were averaged. Spraying a 200 ppm test suspension to the point of run-off on the test plants was the equivalent of a rate of about 800 g/ha. Unless otherwise indicated, the rating values indicate a 200 ppm test suspension was used. (An asterisk “*” next to the rating value indicates a 40 ppm test suspension was used.) The test suspension was sprayed to the point of run-off on wheat seedlings. The following day the seedlings were inoculated with a spore dust of Blumeria graminis f. sp. tritici (also known as Erysiphe graminis f. sp. tritici, the causal agent of wheat powdery mildew) and incubated in a growth chamber at 20° C. for 8 days, after which time visual disease ratings were made. Results for Tests A-I are given in Table A. In the Table, a rating of 100 indicates 100% disease control and a rating of 0 indicates no disease control (relative to the controls). A hyphen (-) indicates no test results.

[2] = tested on: Septoria nodorum; assay: Test E: preventive spray on wheat seedlings, Septoria glume blotch, visual disease rating; settings: 200 ppm test suspension, preventive spray
Experimental: General protocol for preparing test suspensions for Tests A-I: the test compounds were first dissolved in acetone in an amount equal to 3% of the final volume and then suspended at the desired concentration (in ppm) in acetone and purified water (50/50 mix by volume) containing 250 ppm of the surfactant Trem® 014 (polyhydric alcohol esters). The resulting test suspensions were then used in Tests A-I. Each test was conducted in triplicate, and the results were averaged. Spraying a 200 ppm test suspension to the point of run-off on the test plants was the equivalent of a rate of about 800 g/ha. Unless otherwise indicated, the rating values indicate a 200 ppm test suspension was used. (An asterisk “*” next to the rating value indicates a 40 ppm test suspension was used.) The test suspension was sprayed to the point of run-off on wheat seedlings. The following day the seedlings were inoculated with a spore suspension of Septoria nodorum (the causal agent of Septoria glume blotch) and incubated in a saturated atmosphere at 24° C. for 48 h, and then moved to a growth chamber at 20° C. for 9 days, after which time visual disease ratings were made. Results for Tests A-I are given in Table A. In the Table, a rating of 100 indicates 100% disease control and a rating of 0 indicates no disease control (relative to the controls). A hyphen (-) indicates no test results.

[3] = tested on: Puccinia recondita f. sp. tritici; assay: Test H: preventive spray on wheat seedlings, wheat leaf rust, visual disease rating; settings: 200 ppm test suspension
Experimental: General protocol for preparing test suspensions for Tests A-I: the test compounds were first dissolved in acetone in an amount equal to 3% of the final volume and then suspended at the desired concentration (in ppm) in acetone and purified water (50/50 mix by volume) containing 250 ppm of the surfactant Trem® 014 (polyhydric alcohol esters). The resulting test suspensions were then used in Tests A-I. Each test was conducted in triplicate, and the results were averaged. Spraying a 200 ppm test suspension to the point of run-off on the test plants was the equivalent of a rate of about 800 g/ha. Unless otherwise indicated, the rating values indicate a 200 ppm test suspension was used. (An asterisk “*” next to the rating value indicates a 40 ppm test suspension was used.) The test suspension was sprayed to the point of run-off on wheat seedlings. The following day the seedlings were inoculated with a spore suspension of Puccinia recondita f. sp. tritici (the causal agent of wheat leaf rust) and incubated in a saturated atmosphere at 20° C. for 24 h, and then moved to a growth chamber at 20° C. for 6 days, after which time visual disease ratings were made. Results for Tests A-I are given in Table A. In the Table, a rating of 100 indicates 100% disease control and a rating of 0 indicates no disease control (relative to the controls). A hyphen (-) indicates no test results.

[4] = tested on: Alternaria solani; assay: Test B: preventive spray on tomato seedlings, tomato early blight, visual disease rating; settings: 200 ppm test suspension
Experimental: General protocol for preparing test suspensions for Tests A-I: the test compounds were first dissolved in acetone in an amount equal to 3% of the final volume and then suspended at the desired concentration (in ppm) in acetone and purified water (50/50 mix by volume) containing 250 ppm of the surfactant Trem® 014 (polyhydric alcohol esters). The resulting test suspensions were then used in Tests A-I. Each test was conducted in triplicate, and the results were averaged. Spraying a 200 ppm test suspension to the point of run-off on the test plants was the equivalent of a rate of about 800 g/ha. Unless otherwise indicated, the rating values indicate a 200 ppm test suspension was used. (An asterisk “*” next to the rating value indicates a 40 ppm test suspension was used.) The test suspension was sprayed to the point of run-off on tomato seedlings. The following day the seedlings were inoculated with a spore suspension of Alternaria solani (the causal agent of tomato early blight) and incubated in a saturated atmosphere at 27° C. for 48 h, and then moved to a growth chamber at 20° C. for 5 days, after which time visual disease ratings were made. Results for Tests A-I are given in Table A. In the Table, a rating of 100 indicates 100% disease control and a rating of 0 indicates no disease control (relative to the controls). A hyphen (-) indicates no test results.

[5] = tested on: Botrytis cinerea; assay: Test A: preventive spray on tomato seedlings, tomato Botrytis, visual disease rating; settings: 200 ppm test suspension
Experimental: General protocol for preparing test suspensions for Tests A-I: the test compounds were first dissolved in acetone in an amount equal to 3% of the final volume and then suspended at the desired concentration (in ppm) in acetone and purified water (50/50 mix by volume) containing 250 ppm of the surfactant Trem® 014 (polyhydric alcohol esters). The resulting test suspensions were then used in Tests A-I. Each test was conducted in triplicate, and the results were averaged. Spraying a 200 ppm test suspension to the point of run-off on the test plants was the equivalent of a rate of about 800 g/ha. Unless otherwise indicated, the rating values indicate a 200 ppm test suspension was used. (An asterisk “*” next to the rating value indicates a 40 ppm test suspension was used.) The test suspension was sprayed to the point of run-off on tomato seedlings. The following day the seedlings were inoculated with a spore suspension of Botrytis cinerea (the causal agent of tomato Botrytis) and incubated in saturated atmosphere at 20° C. for 48 h, and then moved to a growth chamber at 24° C. for 3 additional days, after which time visual disease ratings were made. Results for Tests A-I are given in Table A. In the Table, a rating of 100 indicates 100% disease control and a rating of 0 indicates no disease control (relative to the controls). A hyphen (-) indicates no test results.

| Structure (SMILES) | pest or weed control at 200 ppm [1] | Test E rating (% disease control) [2] | pest or weed control at 200 ppm [3] | Test B rating (% disease control) [4] | pest or weed control at 200 ppm [5] |
| --- | --- | --- | --- | --- | --- |
| Cc1nn(C)c(Nc2ccccc2F)c1-c1ccc(F)cc1Cl [Compound 1, 4-(2-chloro-4-fluorophenyl)-N-(2-fluorophenyl)-1,3-dimethyl-1H-pyrazol-5-amine] | 100% | 0% | 99% | 93% | 99% |
| Cc1nn(C)c(Nc2c(F)cccc2F)c1-c1ccc(F)cc1Cl [Compound 2, 4-(2-chloro-4-fluorophenyl)-N-(2,6-difluorophenyl)-1,3-dimethyl-1H-pyrazol-5-amine] | 100% | 87% | 99% | 100% | 100% |
| Cc1nn(C)c(Nc2c(F)cccc2Cl)c1-c1ccc(F)cc1Cl [Compound 3, 4-(2-chloro-4-fluorophenyl)-N-(2-chloro-6-fluorophenyl)-1,3-dimethyl-1H-pyrazol-5-amine] | 99% | 99% | 100% | 100% | 100% |
